Assays:
human DGKα = molecular target: T1, human DGKα (Homo sapiens, UniProt P23743); assay: DGKα Biochemical Activity Assay (ADP-Glo);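 note: recombinant enzyme converting diacylglycerol in lipid micelles with ATP, ADP formed detected by luminescence, IC50 from a four-parameter nonlinear fit, geometric mean across experiments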
T1 construct: purchased Carna Biosciences'; inferred from the same paragraph's 'obtained from Carna Biosciences')

[1] = test system: Jurkat NFκB-luciferase cells; assay: Jurkat NFκB-Luciferase Assay; format: cell-based; conditions: Homo sapiens; Jurkat NFκB-luciferase cells activated with anti-CD3 antibody (OKT3), 2.5 hrs at 37° C., One-Glo Ex; geometric mean; read-out: DGK NFKb Luciferase EC50;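 note: bioluminescence read-out normalized to DMSO basal activation and to maximum enhancement at 1 µM compound, rising signal indicating stronger T-cell activation through DGKα inhibition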

T1 sequence (P23743 whole entry): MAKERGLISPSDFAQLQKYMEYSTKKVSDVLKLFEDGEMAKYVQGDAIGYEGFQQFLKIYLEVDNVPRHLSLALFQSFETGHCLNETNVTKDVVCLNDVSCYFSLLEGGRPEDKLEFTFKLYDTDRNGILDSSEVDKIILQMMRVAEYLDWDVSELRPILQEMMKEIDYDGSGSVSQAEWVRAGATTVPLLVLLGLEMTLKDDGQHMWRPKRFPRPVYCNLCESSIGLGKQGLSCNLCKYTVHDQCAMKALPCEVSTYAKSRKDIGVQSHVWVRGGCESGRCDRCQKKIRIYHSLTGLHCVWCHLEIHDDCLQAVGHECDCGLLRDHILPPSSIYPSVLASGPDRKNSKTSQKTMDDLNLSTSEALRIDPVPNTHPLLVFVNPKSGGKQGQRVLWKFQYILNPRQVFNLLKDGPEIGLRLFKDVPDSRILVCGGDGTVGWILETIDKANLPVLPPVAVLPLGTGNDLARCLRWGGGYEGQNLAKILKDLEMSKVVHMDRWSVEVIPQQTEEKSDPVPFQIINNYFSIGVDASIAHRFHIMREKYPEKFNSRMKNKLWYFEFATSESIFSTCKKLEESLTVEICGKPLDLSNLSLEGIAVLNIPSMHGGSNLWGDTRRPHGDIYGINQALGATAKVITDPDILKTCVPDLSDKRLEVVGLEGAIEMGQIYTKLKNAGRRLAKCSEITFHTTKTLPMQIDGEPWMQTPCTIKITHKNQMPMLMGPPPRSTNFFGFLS

Structure (SMILES) | IC50 (human DGKα) [µM] | EC50 [1] [µM]
CC(C)(C#Cc1nccc(N(CC(F)F)c2nc(=O)[nH]c3cccc(F)c23)c1F)C(F)(F)F [Example 125, 4-[2,2-difluoroethyl-[3-fluoro-2-(4,4,4-trifluoro-3,3-dimethyl-but-1-ynyl)-4-pyridyl]amino]-5-fluoro-1H-quinazolin-2-one] | 0.0408 | 0.00218
O=c1nc(N(CC(F)F)c2ccnc(C#CC3(C(F)F)CC3)c2F)c2c(F)cccc2[nH]1 [Example 126, 4-[2,2-difluoroethyl-[2-[2-[1-(difluoromethyl)cyclopropyl]ethynyl]-3-fluoro-4-pyridyl]amino]-5-fluoro-1H-quinazolin-2-one] | 0.018 | 0.00337
CC(C)(O)C#Cc1cccc2c1CCCN2c1nc(=O)[nH]c2cccc(Cl)c12 [Example 127, 5-chloro-4-[5-(3-hydroxy-3-methyl-but-1-ynyl)-3,4-dihydro-2H-quinolin-1-yl]-1H-quinazolin-2-one] | 0.00866 | 0.00392
[2H]C([2H])([2H])n1c(=O)nc(N(CC(F)F)c2ccnc(C#CC(C)(C)O)c2F)c2c(F)cccc21 [Example 128, 4-[2,2-difluoroethyl-[3-fluoro-2-(3-hydroxy-3-methyl-but-1-ynyl)-4-pyridyl]amino]-5-fluoro-1-(trideuteriomethyl)quinazolin-2-one] | 0.00736 | 0.0412
[2H]C([2H])([2H])n1c(=O)nc(N(CC(F)F)c2ccnc(C#CC3(C(F)F)CC3)c2F)c2c(F)cccc21 [Example 129, 4-[2,2-difluoroethyl-[2-[2-[1-(difluoromethyl)cyclopropyl]ethynyl]-3-fluoro-4-pyridyl]amino]-5-fluoro-1-(trideuteriomethyl)quinazolin-2-one] | 0.00282 | 0.00426
[2H]C([2H])([2H])n1c(=O)nc(N2CCCc3c(C#CC(C)(C)O)cccc32)c2c(Cl)cccc21 [Example 130, 5-chloro-4-[5-(3-hydroxy-3-methyl-but-1-ynyl)-3,4-dihydro-2H-quinolin-1-yl]-1-(trideuteriomethyl)quinazolin-2-one] | 0.00549 | 0.0168
CC(C)(C#Cc1nccc2c1CCCN2c1nc(=O)[nH]c2cccc(F)c12)C(F)(F)F [Example 131, 5-fluoro-4-[5-(4,4,4-trifluoro-3,3-dimethyl-but-1-ynyl)-3,4-dihydro-2H-1,6-naphthyridin-1-yl]-1H-quinazolin-2-one] | 0.0437 | 0.0111
CC(F)(F)C1(C#Cc2nccc3c2CCCN3c2nc(=O)[nH]c3cccc(F)c23)CC1 [Example 132, 4-[5-[2-[1-(1,1-difluoroethyl)cyclopropyl]ethynyl]-3,4-dihydro-2H-1,6-naphthyridin-1-yl]-5-fluoro-1H-quinazolin-2-one] | 0.0661 | 0.00996
CC(C)(C#Cc1nccc2c1CCCN2c1nc(=O)[nH]c2ccc(F)c(F)c12)C(F)(F)F [Example 133, 5,6-difluoro-4-[5-(4,4,4-trifluoro-3,3-dimethyl-but-1-ynyl)-3,4-dihydro-2H-1,6-naphthyridin-1-yl]-1H-quinazolin-2-one] | 0.0232 | 0.00447
CC(F)(F)C1(C#Cc2nccc3c2CCCN3c2nc(=O)[nH]c3ccc(F)c(F)c23)CC1 [Example 134, 4-[5-[2-[1-(1,1-difluoroethyl)cyclopropyl]ethynyl]-3,4-dihydro-2H-1,6-naphthyridin-1-yl]-5,6-difluoro-1H-quinazolin-2-one] | 0.0144 | 0.00252
[2H]C([2H])([2H])n1c(=O)nc(N(CC(F)F)c2ccnc(C#CC3(C(F)(F)F)CC3)c2)c2c(F)cccc21 [Example 135, 4-[2,2-difluoroethyl-[2-[2-[1-(trifluoromethyl)cyclopropyl]ethynyl]-4-pyridyl]amino]-5-fluoro-1-(trideuteriomethyl)quinazolin-2-one] | 0.0106 | 0.00223
[2H]C([2H])([2H])n1c(=O)nc(N(CC(F)F)c2ccnc(C#Cc3cncn3C)c2)c2c(F)cccc21 [Example 136, 4-[2,2-difluoroethyl-[2-[2-(3-methylimidazol-4-yl)ethynyl]-4-pyridyl]amino]-5-fluoro-1-(trideuteriomethyl)quinazolin-2-one] | 0.0265 | 0.0844
[2H]C([2H])([2H])n1c(=O)nc(N(CC(F)F)c2ccnc(C#Cc3cnn(C)c3)c2)c2c(F)cccc21 [Example 137, 4-[2,2-difluoroethyl-[2-[2-(1-methylpyrazol-4-yl)ethynyl]-4-pyridyl]amino]-5-fluoro-1-(trideuteriomethyl)quinazolin-2-one] | 0.0102 | 0.0242
[2H]C([2H])([2H])n1c(=O)nc(N(CC(F)F)c2ccnc(C#CC3(C)CC3)c2)c2c(F)cccc21 [Example 138, 4-[2,2-difluoroethyl-[2-[2-(1-methylcyclopropyl)ethynyl]-4-pyridyl]amino]-5-fluoro-1-(trideuteriomethyl)quinazolin-2-one] | 0.00683 | 0.00459
[2H]C([2H])([2H])n1c(=O)nc(N(CC(F)F)c2ccnc(C#CC(C)(C)C#N)c2)c2c(F)cccc21 [Example 139, 4-[4-[2,2-difluoroethyl-[5-fluoro-2-oxo-1-(trideuteriomethyl)quinazolin-4-yl]amino]-2-pyridyl]-2,2-dimethyl-but-3-ynenitrile] | 0.0183 | 0.0155
[2H]C([2H])([2H])n1c(=O)nc(N2CCCc3c2ccnc3C#CC(C)(C)C#N)c2c(F)c(F)ccc21 [Example 140, 4-[1-[5,6-difluoro-2-oxo-1-(trideuteriomethyl)quinazolin-4-yl]-3,4-dihydro-2H-1,6-naphthyridin-5-yl]-2,2-dimethyl-but-3-ynenitrile] | 0.0153 | 0.00754

Structure (SMILES) | IC50 (human DGKα) [µM] | EC50 [1] [µM]
[2H]C([2H])([2H])n1c(=O)nc(N2CCCc3c2ccnc3C#CC2(C(F)(F)F)CC2)c2c(F)c(F)ccc21 [Example 141, 5,6-difluoro-1-(trideuteriomethyl)-4-[5-[2-[1-(trifluoromethyl)cyclopropyl]ethynyl]-3,4-dihydro-2H-1,6-naphthyridin-1-yl]quinazolin-2-one] | 0.00628 | 0.00237
[2H]C([2H])([2H])n1c(=O)nc(N2CCCc3c2ccnc3C#CC2(C(F)(F)F)CC2)c2c(F)cccc21 [Example 142, 5-fluoro-1-(trideuteriomethyl)-4-[5-[2-[1-(trifluoromethyl)cyclopropyl]ethynyl]-3,4-dihydro-2H-1,6-naphthyridin-1-yl]quinazolin-2-one] | 0.00891 | 0.00825
CC(C)(C#N)C#Cc1cccc2c1CCCCN2c1nc(=O)[nH]c2cccc(F)c12 [Example 143, 4-[1-(5-fluoro-2-oxo-1H-quinazolin-4-yl)-2,3,4,5-tetrahydro-1-benzazepin-6-yl]-2,2-dimethyl-but-3-ynenitrile] | 0.0184 | 0.00175
O=c1nc(N2CCOCc3c(C#CC4(C(F)(F)F)CC4)cccc32)c2c(F)ccc(F)c2[nH]1 [Example 144] | 0.0218 | 0.00534
CC1(C#Cc2cccc3c2COCCN3c2nc(=O)[nH]c3c(F)ccc(F)c23)CC1 [Example 145] | 0.013 | 0.00319
O=c1nc(N2CCOCc3c(C#CC4CC4)cccc32)c2c(F)ccc(F)c2[nH]1 [Example 146] | 0.00959 | 0.00469
CC(F)(F)C1(C#Cc2cccc3c2COCCN3c2nc(=O)[nH]c3c(F)ccc(F)c23)CC1 [Example 147] | 0.0519 | 0.00284
O=c1nc(N2CCCCc3c(Br)cncc32)c2c(F)c(F)ccc2[nH]1 [Example 148, 4-(6-bromo-2,3,4,5-tetrahydro-1H-pyrido[3,4-b]azepin-1-yl)-5,6-difluoroquinazolin-2(1H)-one] | 0.0441 | 0.00277
O=c1nc(N2CCCCc3c(Br)cncc32)c2c(F)cccc2[nH]1 [Example 149, 4-(6-bromo-2,3,4,5-tetrahydro-1H-pyrido[3,4-b]azepin-1-yl)-5-fluoroquinazolin-2(1H)-one] | 0.15 | 0.0341
CC1(C#Cc2cncc3c2CCCCN3c2nc(=O)[nH]c3ccc(F)c(F)c23)CC1 [Example 150, 5,6-difluoro-4-(6-((1-methylcyclopropyl)ethynyl)-2,3,4,5-tetrahydro-1H-pyrido[3,4-b]azepin-1-yl)quinazolin-2(1H)-one] | 0.0112 | 0.000826
O=c1nc(N2CCCCc3c(C#CC4(C(F)(F)F)CC4)cncc32)c2c(F)c(F)ccc2[nH]1 [Example 151, 5,6-difluoro-4-(6-((1-(trifluoromethyl)cyclopropyl)ethynyl)-2,3,4,5-tetrahydro-1H-pyrido[3,4-b]azepin-1-yl)quinazolin-2(1H)-one] | 0.018 | 0.000954
CC1(C#Cc2cncc3c2CCCCN3c2nc(=O)[nH]c3cccc(F)c23)CC1 [Example 152, 5-fluoro-4-(6-((1-methylcyclopropyl)ethynyl)-2,3,4,5-tetrahydro-1H-pyrido[3,4-b]azepin-1-yl)quinazolin-2(1H)-one] | 0.0162 | 0.000679
CC(C)(O)C#Cc1cccc2c1COCCN2c1nc(=O)[nH]c2c(F)ccc(F)c12 [Example 155] | 0.0162 | 0.0538
O=c1nc(N2CCCCc3c(C#CC4(C(F)(F)F)CC4)cccc32)c2c(F)cccc2[nH]1 [Example 156, 5-fluoro-4-(6-((1-(trifluoromethyl)cyclopropyl)ethynyl)-2,3,4,5-tetrahydro-1H-benzo[b]azepin-1-yl)quinazolin-2(1H)-one] | 0.0226 | 0.000308
CC1(C#Cc2cccc3c2CCCCN3c2nc(=O)[nH]c3cccc(F)c23)CC1 [Example 157, 5-fluoro-4-(6-((1-methylcyclopropyl)ethynyl)-2,3,4,5-tetrahydro-1H-benzo[b]azepin-1-yl)quinazolin-2(1H)-one] | 0.026 | 0.00058

From patent US11932634B2 (Gilead Sciences, Inc., priority 2021, dated 2024)
